Experimental data reported in PubChem BioAssay AID720624 (Broad Institute, 2013).
Inconclusive results are not listed.

System: SNB-75 viability, CellTiter-Glo ATP luminescence, 8-48 h
Assay: cytotoxicity in SNB-75 CNS cells – cell-based, CellTiter-Glo ATP luminescence, several timepoints, dry powder, mechanism study for HRAS target identification, late-stage follow-up (AID 720624)

| Compound | AC50 (measured here: 8 h treatment) [nM] | AC50 (measured here: 24 h treatment) [nM] | AC50 (measured here: 48 h treatment) [nM] |
| --- | --- | --- | --- |
| COC(=O)c1ccc([C@@H]2c3[nH]c4ccccc4c3C[C@@H](C(=O)OC)N2C(=O)CCl)cc1 | 479 | 224 | 418 |
| Cc1onc(C(=O)N2CCN(C(c3ccc(Cl)cc3)c3ccc(Cl)cc3)CC2)c1[N+](=O)[O-] | 629 | 490 | 1050 |
| C#CCCCC(=O)NCCOCCOCCOc1ccc(N(C(=O)CCl)C(C(=O)NCCc2ccccc2)c2cccs2)cc1Cl (stereo not given) | 3810 | 2480 | 4780 |
| COc1ccc(N(C(=O)CCl)C(C(=O)NCCc2ccccc2)c2cccs2)cc1Cl (stereo not given) | 298 | 246 | 319 |
| CC(C)(C)OC(=O)NCCOCCOCCOc1ccc(N(C(=O)CCl)C(C(=O)NCCc2ccccc2)c2cccs2)cc1Cl (stereo not given) | 787 | 398 | 1030 |
